Test results from ChEMBL document CHEMBL1201862, “PubChem BioAssay data set” (2004).
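Assay format: 96-well plates, 48-hour exposure. At the GI50, growth is halved.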 The source made the active and inactive calls. Cut-off read from the data, not from the text of the source: active = GI50 up to about 1.1 µM and inactive = higher.

Key:
Experiment in all cases: NCI-60 cell line screen, 48 h
OVCAR-8 = tested on: OVCAR-8
IGROV-1 = tested on: IGROV-1
COLO 205 = tested on: COLO 205
Malme-3M = tested on: Malme-3M
OVCAR-3 = tested on: OVCAR-3
CAKI-1 = tested on: CAKI-1
NCI-H226 = tested on: NCI-H226
OVCAR-4 = tested on: OVCAR-4
M14 = tested on: M14
HOP-62 = tested on: HOP-62
KM-20L2 = tested on: KM-20L2
ACHN = tested on: ACHN
DMS-273 = tested on: DMS-273
MOLT-4 = tested on: MOLT-4
SF-295 = tested on: SF-295
M19-MEL = tested on: M19-MEL
NCI-H460 = tested on: NCI-H460
RPMI-8226 = tested on: RPMI-8226
HCT-116 = tested on: HCT-116
SF-268 = tested on: SF-268
TK-10 = tested on: TK-10
U-251 = tested on: U-251
NCI-H522 = tested on: NCI-H522
SF-539 = tested on: SF-539
SN12C = tested on: SN12C
CCRF-CEM = tested on: CCRF-CEM
EKVX = tested on: EKVX
SW-620 = tested on: SW-620
XF498 = tested on: XF498
SK-MEL-28 = tested on: SK-MEL-28
UACC-257 = tested on: UACC-257
LXFL 529 = tested on: LXFL 529
DLD-1 = tested on: DLD-1
SNB-75 = tested on: SNB-75
NCI-H23 = tested on: NCI-H23
UO-31 = tested on: UO-31
DMS-114 = tested on: DMS-114
RXF 393 = tested on: RXF 393
KM12 = tested on: KM12
LOX IMVI = tested on: LOX IMVI
HCC 2998 = tested on: HCC 2998
A498 = tested on: A498
HL-60 = tested on: HL-60
HCT-15 = tested on: HCT-15
RXF 631 = tested on: RXF 631
SNB-19 = tested on: SNB-19
786-0 = tested on: 786-0
SK-OV-3 = tested on: SK-OV-3
SK-MEL-2 = tested on: SK-MEL-2
HT-29 = tested on: HT-29
UACC-62 = tested on: UACC-62
OVCAR-5 = tested on: OVCAR-5
K562 = tested on: K562
HOP-18 = tested on: HOP-18
A549 = tested on: A549
SNB-78 = tested on: SNB-78
SK-MEL-5 = tested on: SK-MEL-5
SR = tested on: SR
HOP-92 = tested on: HOP-92

O=C1O[B-](c2ccccc2)(c2ccccc2)[NH2+]C1CS (centres undefined)
GI50 (OVCAR-8): > 100 µM (inactive)
GI50 (IGROV-1): 78 µM (inactive)
GI50 (COLO 205): 33.4 µM (inactive)
GI50 (Malme-3M): 38.2 µM (inactive)
GI50 (OVCAR-3): 38.8 µM (inactive)
GI50 (CAKI-1): 35.6 µM (inactive)
GI50 (NCI-H226): 68.4 µM (inactive)
GI50 (OVCAR-4): 47.2 µM (inactive)
GI50 (M14): 52.6 µM (inactive)
GI50 (HOP-62): > 100 µM (inactive)
GI50 (KM-20L2): 64.7 µM (inactive)
GI50 (ACHN): 36.7 µM (inactive)
GI50 (DMS-273): 34.9 µM (inactive)
GI50 (MOLT-4): 25.4 µM (inactive)
GI50 (SF-295): > 100 µM (inactive)
GI50 (M19-MEL): 35.3 µM (inactive)
GI50 (NCI-H460): 66.1 µM (inactive)
GI50 (RPMI-8226): 20.2 µM (inactive)
GI50 (HCT-116): 33.7 µM (inactive)
GI50 (SF-268): 96.4 µM (inactive)
GI50 (TK-10): 85.1 µM (inactive)
GI50 (U-251): 63.5 µM (inactive)
GI50 (NCI-H522): 43.3 µM (inactive)
GI50 (SF-539): 57.7 µM (inactive)
GI50 (SN12C): 80.4 µM (inactive)
GI50 (CCRF-CEM): 17.7 µM (inactive)
GI50 (EKVX): > 100 µM (inactive)
GI50 (SW-620): 24.5 µM (inactive)
GI50 (XF498): > 100 µM (inactive)
GI50 (SK-MEL-28): 66.1 µM (inactive)
GI50 (UACC-257): 66.1 µM (inactive)
GI50 (LXFL 529): 39.9 µM (inactive)
GI50 (DLD-1): 33 µM (inactive)
GI50 (SNB-75): 34.8 µM (inactive)
GI50 (NCI-H23): 61.2 µM (inactive)
GI50 (UO-31): 52.2 µM (inactive)
GI50 (DMS-114): 34.9 µM (inactive)
GI50 (RXF 393): 23.3 µM (inactive)
GI50 (KM12): 31.8 µM (inactive)
GI50 (LOX IMVI): 24.3 µM (inactive)
GI50 (HCC 2998): 49.7 µM (inactive)
GI50 (A498): 41.8 µM (inactive)
GI50 (HL-60): 23.9 µM (inactive)
GI50 (HCT-15): 36 µM
GI50 (RXF 631): 50.8 µM (inactive)
GI50 (SNB-19): > 100 µM (inactive)
GI50 (786-0): 21.4 µM (inactive)
GI50 (SK-OV-3): > 100 µM (inactive)
GI50 (SK-MEL-2): 83.8 µM (inactive)
GI50 (HT-29): 71.3 µM (inactive)
GI50 (UACC-62): 42 µM (inactive)
GI50 (OVCAR-5): > 100 µM (inactive)
GI50 (K562): 23.9 µM (inactive)
GI50 (HOP-18): > 100 µM (inactive)
GI50 (A549): 92.3 µM (inactive)
GI50 (SNB-78): 65.9 µM (inactive)
GI50 (SK-MEL-5): 55 µM (inactive)
GI50 (SR): 28.8 µM (inactive)
GI50 (HOP-92): 27.3 µM (inactive)
